The source of these data is patent US20060116390A1, “Hepatitis c virus inhibitors” (priority 2003, published 2006).

Where two headings read alike, the source gives them in different places.

The assay concerns HCV proteins in Rep5.1 cells (replicon cell line). Put plainly: Inhibitory activity of HCV: cell-based ELISA in replicon cell line Rep5.1 (decrease of HCV proteins). More on the design: species or system hepatitis C virus. Conditions: Rep5.1 cells, 72 hours with drug. In outline:
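Rep5.1 replicon cells (5000/well, DMEM-10 with 500 μg/ml G418) were given serially diluted drug 4 h after seeding. After 72 h, cells were fixed in methanol/acetone and HCV proteins detected by cell-based ELISA using replicon-specific patient plasma antibodies. IC50 is the concentration giving 50% protein decrease versus the no-drug control.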
(In an ELISA, binding on a coated surface is turned into a signal by an enzyme label.)

The mark [1] stands for this setting: Hepatitis C virus, 72 h, concentration at which 50% of HCV proteins was decreased, Table 2, read-out: IC50.
Setting [2] is: Hepatitis C virus, 72 h, decrease of HCV proteins measured by HCV antibody, Table 1, read-out: Level (IC50 values classified).
Setting [3] is: concentration at which 50% of HCV proteins was decreased, Table 2, read-out: IC50.

Regarding `CC1=C(C(=O)OCCCc2cccc(OC(F)(F)F)c2)CNC(=S)N1` [Compound 106, 6-methyl-2-thioxo-1,2,3,4-tetrahydro-pyrimidine-5-carboxylic acid 3-(3-trifluoromethoxy-phenyl)-propyl ester], the 50% inhibitory concentration (IC50) (usually the concentration at which inhibition is half-maximal) by setting is: under setting [1], below 400 nM; under setting [2], below 1000 nM. In the same order, the values of `CC1=C(C(=O)OCCCc2ccc(C(F)(F)F)cc2)CNC(=S)N1` [Compound 107, 6-methyl-2-thioxo-1,2,3,4-tetrahydro-pyrimidine-5-carboxylic acid 3-(4-trifluoromethyl-phenyl)-propyl ester] are below 400 nM and below 1000 nM.

Turning to `CC1=C(C(=O)OCCCc2ccc(OCc3ccccc3)cc2)CNC(=S)N1` [Compound 108, 6-methyl-2-thioxo-1,2,3,4-tetrahydro-pyrimidine-5-carboxylic acid 3-(4-benzyloxy-phenyl)-propyl ester], the IC50 is, setting by setting: under setting [1], below 400 nM; under setting [2], below 1000 nM.

On to `COCC1NC(=S)NC(C)=C1C(=O)OCc1ccccc1` (stereo not shown) [Compound 109, 4-methoxymethyl-6-methyl-2-thioxo-1,2,3,4-tetrahydro-pyrimidine-5-carboxylic acid benzyl ester], for which the IC50 is, setting by setting: under setting [1], 100000 nM; under setting [2], above 20000 nM.

Regarding `CSc1ccccc1COC(=O)C1=C(C)NC(=S)NC1` [Compound 110, 6-methyl-2-thioxo-1,2,3,4-tetrahydro-pyrimidine-5-carboxylic acid 2-methylsulfanyl-benzyl ester], the IC50 under setting [1] was 17000 nM and the IC50 under setting [2] was in the range of 1000 to 10000 nM. In the same order, the values of `CC1=C(C(=O)OCc2ccccc2SCC(C)C)CNC(=S)N1` [Compound 111, 6-methyl-2-thioxo-1,2,3,4-tetrahydro-pyrimidine-5-carboxylic acid 2-isobutylsulfanyl-benzyl ester] are 2000 nM and 1000 to 10000 nM.

`CC1=C(C(=O)OCc2ccccc2S(C)(=O)=O)CNC(=S)N1` [Compound 112, 6-methyl-2-thioxo-1,2,3,4-tetrahydro-pyrimidine-5-carboxylic acid 2-methanesulfonyl-benzyl ester]: the IC50 is, setting by setting: under setting [1], above 100000 nM; under setting [2], above 20000 nM. In the same order, the values of `CC1=C(C(=O)OCc2ccccc2S(=O)(=O)CC(C)C)CNC(=S)N1` [Compound 113, 6-methyl-2-thioxo-1,2,3,4-tetrahydro-pyrimidine-5-carboxylic acid 2-(2-methyl-propane-1-sulfonyl)-benzyl ester] are above 100000 nM and above 20000 nM. For the molecule `CC1=C(C(=O)OCc2ccc(C(F)(F)F)cc2)CNC(=S)N1` [Compound 114, 6-methyl-2-thioxo-1,2,3,4-tetrahydro-pyrimidine-5-carboxylic acid 4-trifluoromethyl-benzyl ester], the IC50 by setting is: under setting [1], below 400 nM; under setting [2], below 1000 nM. For `COc1ccccc1CCOC(=O)C1=C(C)NC(=S)NC1` [Compound 115, 6-methyl-2-thioxo-1,2,3,4-tetrahydro-pyrimidine-5-carboxylic acid 2-(2-methoxy-phenyl)-ethyl ester], the concentration for half-maximal inhibition (IC50) runs as follows: under setting [1], 700 nM; under setting [2], below 1000 nM. On to `CC1=C(C(=O)OCCc2ccccc2F)CNC(=S)N1` [Compound 116, 6-methyl-2-thioxo-1,2,3,4-tetrahydro-pyrimidine-5-carboxylic acid 2-(2-fluoro-phenyl)-ethyl ester], for which the half-inhibitory concentration (IC50) runs as follows: under setting [1], 500 nM; under setting [2], below 1000 nM. For the molecule `CC1=C(C(=O)OCCc2cccc(Cl)c2)CNC(=S)N1` [Compound 117, 6-methyl-2-thioxo-1,2,3,4-tetrahydro-pyrimidine-5-carboxylic acid 2-(3-chloro-phenyl)-ethyl ester], the IC50 under setting [1] is 400 nM and the IC50 under setting [2] is below 1000 nM. In the same order, the values of `CC1=C(C(=O)OCCc2ccccc2Cl)CNC(=S)N1` [Compound 118, 6-methyl-2-thioxo-1,2,3,4-tetrahydro-pyrimidine-5-carboxylic acid 2-(2-chloro-phenyl)-ethyl ester] are below 400 nM and below 1000 nM. In the same order, the values of `CC1=C(C(=O)OCCc2ccc([N+](=O)[O-])cc2)CNC(=S)N1` [Compound 119, 6-methyl-2-thioxo-1,2,3,4-tetrahydro-pyrimidine-5-carboxylic acid 2-(4-nitro-phenyl)-ethyl ester] are 1300 nM and 1000 to 10000 nM.

Turning to `COc1cccc(COC(=O)C2=C(C)NC(=S)NC2)c1` [Compound 120, 6-methyl-2-thioxo-1,2,3,4-tetrahydro-pyrimidine-5-carboxylic acid 3-methoxy-benzyl ester], the IC50 is, setting by setting: under setting [1], 1000 nM; under setting [2], 1000 to 10000 nM. For `COc1ccc(CSC(=O)C2=C(C)NC(=S)NC2)cc1` [Compound 121, 6-methyl-2-thioxo-1,2,3,4-tetrahydro-pyrimidine-5-carbothioic acid S-(4-methoxy-benzyl)ester], the IC50 was 500 nM under setting [1] and below 1000 nM under setting [2]. In the same order, the values of `CC1=C(C(=O)OCc2ccc(C)cc2C)CNC(=S)N1` [Compound 122, 6-methyl-2-thioxo-1,2,3,4-tetrahydro-pyrimidine-5-carboxylic acid 2,4-dimethyl-benzyl ester] are 800 nM and below 1000 nM. Take `CC1=C(C(=O)OC2CCc3ccccc32)CNC(=S)N1` (stereo not shown) [Compound 123, 6-methyl-2-thioxo-1,2,3,4-tetrahydro-pyrimidine-5-carboxylic acid indan-1-yl ester]: the 50% inhibitory concentration (IC50) reads like this: under setting [1], 8000 nM; under setting [2], 1000 to 10000 nM. In the same order, the values of `CC1=C(C(=O)OC2Cc3ccccc3C2)CNC(=S)N1` [Compound 124, 6-methyl-2-thioxo-1,2,3,4-tetrahydro-pyrimidine-5-carboxylic acid indan-2-yl ester] are 800 nM and below 1000 nM. In the case of `CC1=C(C(=O)OCCOC2CCc3ccccc32)CNC(=S)N1` (stereo not shown) [Compound 125, 6-methyl-2-thioxo-1,2,3,4-tetrahydro-pyrimidine-5-carboxylic acid 2-(indan-1-yloxy)-ethyl ester], the IC50 by setting is: under setting [1], 2000 nM; under setting [2], 1000 to 10000 nM. In the case of `CC1=C(C(=O)OCCC2CCc3ccccc32)CNC(=S)N1` (stereo not shown) [Compound 126, 6-methyl-2-thioxo-1,2,3,4-tetrahydro-pyrimidine-5-carboxylic acid 2-indan-1-yl-ethyl ester], the IC50 is, setting by setting: under setting [1], below 400 nM; under setting [2], below 1000 nM.

Regarding `CC1=C(C(=O)OCC2=Cc3ccccc3S2(=O)=O)CNC(=S)N1` [Compound 127, 6-methyl-2-thioxo-1,2,3,4-tetrahydro-pyrimidine-5-carboxylic acid 1,1-dioxo-1H-11^6-benzo[b]thiophen-2-ylmethyl ester], under setting [3], the IC50 was 3500 nM. On to `CC1=C(C(=O)OCc2ccc(-c3ccc([N+](=O)[O-])cc3)o2)CNC(=S)N1` [Compound 128, 6-methyl-2-thioxo-1,2,3,4-tetrahydro-pyrimidine-5-carboxylic acid 5-(4-nitro-phenyl)-furan-2-ylmethyl ester], for which the IC50 was 1000 nM under setting [1] and below 1000 nM under setting [2]. In the case of `C#CCCOC(=O)C1=C(C)NC(=S)NC1` [Compound 129, 6-methyl-2-thioxo-1,2,3,4-tetrahydro-pyrimidine-5-carboxylic acid but-3-inyl ester], the IC50 under setting [3] is above 100000 nM. Still for that read-out and setting: to `C#CCCCOC(=O)C1=C(C)NC(=S)NC1` [Compound 130, 6-methyl-2-thioxo-1,2,3,4-tetrahydro-pyrimidine-5-carboxylic acid pent-4-inyl ester] belongs 35000 nM. In the case of `CC1=C(C(=O)OCc2cc(Cl)cc(Cl)c2)CNC(=S)N1` [Compound 131, 6-methyl-2-thioxo-1,2,3,4-tetrahydro-pyrimidine-5-carboxylic acid 3,5-dichloro-benzyl ester], the IC50 under setting [1] was below 400 nM and the IC50 under setting [2] is below 1000 nM. In the same order, the values of `COc1ccc(Cl)cc1COC(=O)C1=C(C)NC(=S)NC1` [Compound 132, 6-methyl-2-thioxo-1,2,3,4-tetrahydro-pyrimidine-5-carboxylic acid 5-chloro-2-methoxy-benzyl ester] are 400 nM and below 1000 nM. Consider `CC1=C(C(=O)OCCc2ccccc2C)CNC(=S)N1` [Compound 133, 6-methyl-2-thioxo-1,2,3,4-tetrahydro-pyrimidine-5-carboxylic acid 2-o-tolyl-ethyl ester], for which the IC50 is below 400 nM under setting [1] and below 1000 nM under setting [2]. As for `CC1=C(C(=O)OCc2cc(F)cc(F)c2)CNC(=S)N1` [Compound 134, 6-methyl-2-thioxo-1,2,3,4-tetrahydro-pyrimidine-5-carboxylic acid 3,5-difluoro-benzyl ester], the IC50 by setting is: under setting [1], 600 nM; under setting [2], below 1000 nM. In the same order, the values of `CC1=C(C(=O)OCc2ccc([N+](=O)[O-])c(C)c2)CNC(=S)N1` [Compound 135, 6-methyl-2-thioxo-1,2,3,4-tetrahydro-pyrimidine-5-carboxylic acid 3-methyl-4-nitro-benzyl ester] are 900 nM and below 1000 nM. In the same order, the values of `CC1=C(C(=O)OCc2ccc(C)c([N+](=O)[O-])c2)CNC(=S)N1` [Compound 136, 6-methyl-2-thioxo-1,2,3,4-tetrahydro-pyrimidine-5-carboxylic acid 3-nitro-4-methyl-benzyl ester] are 600 nM and below 1000 nM. In the same order, the values of `COc1ccc(COC(=O)C2=C(C)NC(=S)NC2)c(OC)c1C` [Compound 137, 6-methyl-2-thioxo-1,2,3,4-tetrahydro-pyrimidine-5-carboxylic acid 2,4-dimethoxy-3-methyl-benzyl ester] are 10000 nM and 1000 to 10000 nM.
